Patent publication US20220233512A1, “INHIBITING AN IMMUNE RESPONSE MEDIATED BY ONE OR MORE OF TLR2, RAGE, CCR5, CXCR4 AND CD4” (priority 2020, published 2022)

Columns and labels:
mu opiate receptor (MOR) = target: T1, mu opiate receptor (MOR) (Rattus norvegicus, UniProt P33535); assay: MOR agonist activity using [35S]GTPgS binding assay in striatal membranes; assay type: biochemical; details: Series C-2 table
T1 construct: from tissue; host or cells: striatum (membrane preparation)
Outline: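 Rat striatal membranes incubated 5 min at 30 °C in pH 7.5 HEPES buffer with 100 mM NaCl, 1 mM MgCl2 and 0.5 nM [35S]GTPgS, then 5 min with compound. Gαo-bound [35S]GTPgS isolated by immunoprecipitation and counted by liquid scintillation.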

[1] = tested on: human astrocyte TLR2 receptors; assay: Release of pro-inflammatory cytokines from primary human astrocytes; assay type: cell-based
Method: A primary astrocyte culture was prepared according to the provider (Lonza). The adherent astrocytes were trypsinized by 0.25% trypsin-EDTA, then collected and sub-cultured in 12-well plate (1.2 ml/well). When the cells were 80-85% confluent, cells were treated in an incubator under 5% CO2 with 100 fM, 10 pM or 1 nM Compound C0105 immediately followed by the addition of Ab42 ([…]), LPS (1 mg/ml), LTA-SA (1 mg/ml) and PGN-SA (10 mg/ml); i.e., simultaneously adding the insulting ligand and Compound C0105 to the cells. Vehicle groups were treated with 0.1% DMSO only. Incubation continued for 24 hours post addition. Culture medium was used as the blank (non-treat) and the levels of cytokines, TNF-a, IL-6 and IL-1b in 200 ml of culture medium were determined. Each well was sampled once.
Plates were washed 3 times with ice-cold 50 mM Tris HCl (pH 7.4) and incubated at 30° C. with 200 ml medium derived from the above-mentioned conditions. […] Plates were washed twice with 200 ml ice-cold Tris HCl, pH 7.4 and the residual FITC signals were determined by multimode plate reader, DTX880 (Beckman).
A primary astrocyte culture was prepared according to the provider (Lonza). […] Culture medium was used as the blank (non-treat) and the levels of cytokines, TNF-a, IL-6 and IL-1b in 200 ml of culture medium were determined. […]

FLNA = target: T2, FLNA (Mus musculus, UniProt Q8BTM8); details: 20-22 mg/kg in vivo; Ab42-infused, 3xTg AD and aged wild-type mice (untreated 5.3); Wang et al. 2017; cited from earlier work
T2 construct: pI of FLNA from the brains of naïve mice; from tissue; host or cells: mouse brain (in vivo treated animals)
T2 sequence (Q8BTM8 whole entry, the tested form may be a part): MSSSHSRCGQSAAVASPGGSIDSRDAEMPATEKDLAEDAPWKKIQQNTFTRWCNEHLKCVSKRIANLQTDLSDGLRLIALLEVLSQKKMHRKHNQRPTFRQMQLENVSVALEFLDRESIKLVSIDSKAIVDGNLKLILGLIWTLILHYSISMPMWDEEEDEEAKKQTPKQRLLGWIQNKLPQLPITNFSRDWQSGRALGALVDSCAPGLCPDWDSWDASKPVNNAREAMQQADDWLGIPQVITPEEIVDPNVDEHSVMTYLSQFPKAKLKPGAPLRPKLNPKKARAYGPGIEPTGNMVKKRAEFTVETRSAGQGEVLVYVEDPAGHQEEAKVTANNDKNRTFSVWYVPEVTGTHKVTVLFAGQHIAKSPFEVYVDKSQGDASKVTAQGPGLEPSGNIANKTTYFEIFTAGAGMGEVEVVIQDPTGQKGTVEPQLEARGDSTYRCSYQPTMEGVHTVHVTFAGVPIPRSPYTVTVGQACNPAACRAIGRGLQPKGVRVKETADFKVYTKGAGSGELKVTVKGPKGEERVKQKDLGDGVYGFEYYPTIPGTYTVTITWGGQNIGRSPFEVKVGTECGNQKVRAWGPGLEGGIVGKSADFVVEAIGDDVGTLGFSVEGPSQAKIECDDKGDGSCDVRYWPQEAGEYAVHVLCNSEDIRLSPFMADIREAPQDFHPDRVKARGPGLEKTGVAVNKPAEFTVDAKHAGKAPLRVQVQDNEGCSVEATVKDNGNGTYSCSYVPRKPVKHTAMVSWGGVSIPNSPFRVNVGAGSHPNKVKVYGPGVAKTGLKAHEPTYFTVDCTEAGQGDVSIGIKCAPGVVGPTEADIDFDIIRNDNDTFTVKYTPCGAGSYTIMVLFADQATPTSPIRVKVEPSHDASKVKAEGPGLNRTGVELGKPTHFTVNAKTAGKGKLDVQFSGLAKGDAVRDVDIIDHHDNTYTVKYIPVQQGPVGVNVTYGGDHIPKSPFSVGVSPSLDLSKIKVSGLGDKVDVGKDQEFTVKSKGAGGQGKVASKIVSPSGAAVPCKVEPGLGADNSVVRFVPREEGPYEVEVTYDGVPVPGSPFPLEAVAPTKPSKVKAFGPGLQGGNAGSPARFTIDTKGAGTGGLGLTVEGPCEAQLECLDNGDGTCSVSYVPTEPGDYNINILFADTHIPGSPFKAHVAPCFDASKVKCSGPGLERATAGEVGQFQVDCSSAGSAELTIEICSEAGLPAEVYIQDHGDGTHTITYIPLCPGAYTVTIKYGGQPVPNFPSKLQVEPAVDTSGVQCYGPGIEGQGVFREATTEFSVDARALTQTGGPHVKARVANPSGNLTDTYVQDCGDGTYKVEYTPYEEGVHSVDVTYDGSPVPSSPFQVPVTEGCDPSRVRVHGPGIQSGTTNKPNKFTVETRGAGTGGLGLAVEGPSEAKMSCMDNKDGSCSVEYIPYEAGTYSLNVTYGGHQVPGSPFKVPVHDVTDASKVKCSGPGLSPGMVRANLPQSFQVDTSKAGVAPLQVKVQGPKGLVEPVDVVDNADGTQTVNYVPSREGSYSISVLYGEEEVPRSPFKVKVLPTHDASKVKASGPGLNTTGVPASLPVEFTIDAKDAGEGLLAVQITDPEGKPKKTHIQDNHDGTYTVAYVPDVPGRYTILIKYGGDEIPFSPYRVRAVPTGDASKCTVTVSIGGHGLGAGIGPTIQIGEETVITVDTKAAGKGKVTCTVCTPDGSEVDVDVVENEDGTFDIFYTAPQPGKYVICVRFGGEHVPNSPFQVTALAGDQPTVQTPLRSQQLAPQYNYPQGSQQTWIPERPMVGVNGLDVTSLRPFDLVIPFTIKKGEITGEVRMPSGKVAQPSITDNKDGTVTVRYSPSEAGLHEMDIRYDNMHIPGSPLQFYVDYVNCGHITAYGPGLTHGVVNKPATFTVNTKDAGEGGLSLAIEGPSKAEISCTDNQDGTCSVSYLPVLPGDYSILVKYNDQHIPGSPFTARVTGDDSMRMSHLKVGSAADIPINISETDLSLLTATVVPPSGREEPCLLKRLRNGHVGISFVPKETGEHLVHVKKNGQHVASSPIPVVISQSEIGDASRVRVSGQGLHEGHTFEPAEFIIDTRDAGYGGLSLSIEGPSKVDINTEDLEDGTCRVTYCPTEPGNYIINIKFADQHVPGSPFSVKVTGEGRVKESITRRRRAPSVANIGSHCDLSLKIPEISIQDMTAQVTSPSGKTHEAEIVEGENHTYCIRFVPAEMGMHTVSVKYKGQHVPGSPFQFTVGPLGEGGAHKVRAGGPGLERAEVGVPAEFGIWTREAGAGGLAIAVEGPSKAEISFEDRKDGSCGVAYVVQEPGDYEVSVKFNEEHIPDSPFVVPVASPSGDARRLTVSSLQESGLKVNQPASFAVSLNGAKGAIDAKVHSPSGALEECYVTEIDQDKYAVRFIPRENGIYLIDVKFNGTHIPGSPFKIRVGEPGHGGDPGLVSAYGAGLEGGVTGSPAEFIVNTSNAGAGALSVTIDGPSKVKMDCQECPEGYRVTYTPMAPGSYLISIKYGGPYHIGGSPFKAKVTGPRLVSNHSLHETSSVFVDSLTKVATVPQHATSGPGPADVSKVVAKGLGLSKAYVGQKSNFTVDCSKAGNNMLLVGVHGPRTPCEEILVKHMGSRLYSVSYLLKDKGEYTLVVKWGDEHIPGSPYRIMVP

T1 sequence (P33535 whole entry): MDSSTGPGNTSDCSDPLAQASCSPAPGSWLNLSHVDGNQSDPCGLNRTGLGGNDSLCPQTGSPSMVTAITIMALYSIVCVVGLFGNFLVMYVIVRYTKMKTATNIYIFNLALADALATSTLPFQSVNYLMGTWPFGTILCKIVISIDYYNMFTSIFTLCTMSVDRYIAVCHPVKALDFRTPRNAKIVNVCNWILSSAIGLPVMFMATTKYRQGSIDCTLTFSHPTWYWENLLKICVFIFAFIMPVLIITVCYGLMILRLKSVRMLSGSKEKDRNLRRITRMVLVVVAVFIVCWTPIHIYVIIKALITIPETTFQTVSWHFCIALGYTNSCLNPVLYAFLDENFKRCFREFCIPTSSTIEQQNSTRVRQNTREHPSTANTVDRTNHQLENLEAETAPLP

CN1CCC2(CC1)NCC(=O)N2Cc1ccccc1 [Compound C0105M]
MOR agonist activity ([35S]GTPgS binding to Gao) (mu opiate receptor (MOR); 0.1 μM compound as agonist): 198.1% | MOR agonist activity ([35S]GTPgS binding to Gao) (mu opiate receptor (MOR); 1 μM + BFNA): 73.1% | MOR agonist activity ([35S]GTPgS binding to Gao) (mu opiate receptor (MOR); 1 μM compound as agonist): 220.3% | Ab42-induced inflammatory cytokine production (in words) ([1]; Ab42 exposure): nearly abolishes this cytokine production | Release of the three pro-inflammatory cytokines (in words) ([1]; LTA-SA or PGN-SA insult, human astrocytes): substantially inhibited the release | pI of FLNA from brain after treatment (FLNA): 5.9
